This is an account of results in patent US12428413B2 (CHDI Foundation, Inc., priority 2019, dated 2025).

Structures can show the parent of a compound that is named as a salt.

For assay [1], the system named is cellular ROCK activity (cofilin phosphorylation at Ser3) in A7r5 rat smooth muscle cells. As to the kind of experiment: Cellular ROCK activity: cofilin (Ser3) phosphorylation, In-Cell Western assay. The format is cell-based. The conditions noted are these: Rattus norvegicus, A7R5, 1 h, 1 hour compound incubation, phospho-cofilin (Ser3), read-out: CELL_IC50. As for the experimental part: The potency of Rho-associated protein kinase (ROCK) inhibitors was quantified by measuring cofilin phosphorylation levels at Serine 3 (Ser3) as a measure of cellular ROCK activity by In-Cell Western assay. […] The assay plate was imaged and quantified on the Odyssey imager (LICOR Biosciences).
ROCK inhibitor compound plate preparation. […] Stock compounds and control are added directly to ECHO plate (Labcyte) by Janus.
A7r5 cell culture and plating. A7r5 cells were cultured according to standard cell culture protocols in A7r5 growth media (DMEM with Glutamax and 10% FBS). […] 45 μl of re-suspended A7r5 cells were plated at 3000 cells/well in a sterile, μclear, black, F-bottom, 384-well microplate (Greiner bio-one). Seeded cells allowed to settle in wells on the bench for 1 hour before incubation at 37° C., 5% CO2 overnight.
Assay reagent and antibody preparations. Wash buffer was prepared by addition of Tween-20 to Dulbecco's Phosphate Buffered Saline (DPBS) (1×) without calcium and magnesium to make 1% Tween-20 as final concentration. Blocking buffer was prepared by addition of TritonX-100 to SeaBlock buffer (ThermoFisher) to make 0.3% TritonX-100 as final concentration. […] Secondary antibody mix was prepared by diluting donkey anti-rabbit 800CW antibody (LICOR Biosciences) 1:1000 in SeaBlock buffer.
Assay procedure. Compound plate was diluted by addition of 19 μl/well compound dilution buffer (DMEM with Glutamax) using 125 μl 16-channel Matrix electronic pipette. 5 μl diluted compound was stamped from compound plate to assay plate containing A7r5 cells using Bravo (384-well head from Agilent) liquid handler and incubated at 37° C., 5% CO2 for 1 hour. Cells were fixed by addition of 5 μl 37% formaldehyde using 125 μl 16-channel Matrix electronic pipette and incubation for 20 min at room temperature. The assay plate was washed 5× with 60 μl/well wash buffer. […] Next, the assay plate was sealed, centrifuged at 1000 rpm for 5 seconds and incubated at 4° C. overnight on an orbital shaker at 300 rpm. […] The assay plate was centrifuged at 1000 rpm for 5 seconds and incubated on an orbital shaker at 300 rpm for 60 min at room temperature. Finally, assay plate was washed and wells left empty before measurement of 700 nm and 800 nm fluorescence intensities on Odyssey imager set at 4.0 mm focus offset.

Assay [2] has as its target human catalytic domain ROCK II protein (amino acids 5-554) with a N-terminal GST tag (Homo sapiens, UniProt O75116). As to the kind of experiment: biochemical.

human catalytic domain ROCK II protein (amino acids 5-554) with a N-terminal GST tag, sequence (O75116 5-554): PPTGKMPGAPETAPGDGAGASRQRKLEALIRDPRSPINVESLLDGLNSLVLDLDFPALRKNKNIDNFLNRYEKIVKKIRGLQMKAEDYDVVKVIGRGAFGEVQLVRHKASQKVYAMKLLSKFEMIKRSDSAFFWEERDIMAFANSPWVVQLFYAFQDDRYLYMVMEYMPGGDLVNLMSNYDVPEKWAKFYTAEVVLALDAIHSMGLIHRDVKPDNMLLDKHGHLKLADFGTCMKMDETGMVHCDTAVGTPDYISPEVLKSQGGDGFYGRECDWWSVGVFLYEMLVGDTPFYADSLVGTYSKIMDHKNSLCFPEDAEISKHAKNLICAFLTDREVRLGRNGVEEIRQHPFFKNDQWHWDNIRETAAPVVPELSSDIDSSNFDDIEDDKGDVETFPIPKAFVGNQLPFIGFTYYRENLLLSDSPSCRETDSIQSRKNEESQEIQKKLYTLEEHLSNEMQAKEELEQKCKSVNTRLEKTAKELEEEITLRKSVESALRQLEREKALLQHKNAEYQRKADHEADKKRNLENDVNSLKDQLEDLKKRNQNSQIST

On to `C[C@@H](NC(=O)N1CCN(c2ccncc2F)CC1)c1cccc2occc12` [Example 29, (R)—N-(1-(Benzofuran-4-yl)ethyl)-4-(3-fluoropyridin-4-yl)piperazine-1-carboxamide], for which the IC50 in assay [1] was determined as 54.1 nM; in assay [2] it was 4.5 nM.
Taken in the same sequence, the figures for `C[C@@H](NC(=O)N1CCN(c2ccncc2F)CC1)c1cccc2c1CC(C)(C)O2` [Example 30, (R)—N-(1-(2,2-Dimethyl-2,3-dihydrobenzofuran-4-yl)ethyl)-4-(3-fluoropyridin-4-yl)piperazine-1-carboxamide] were 301 nM and 22.4 nM.
On the same counts, the results for `Cc1cc2c([C@@H](C)NC(=O)N3CCN(c4ccncc4F)CC3)cccc2o1` [Example 31, (R)-4-(3-Fluoropyridin-4-yl)-N-(1-(2-methylbenzofuran-4-yl)ethyl)piperazine-1-carboxamide] are 189 nM and 3.7 nM.
`Cc1cnc2cccc([C@@H](C)NC(=O)N3CCN(c4ccncc4F)CC3)n12` [Example 34, (R)-4-(3-fluoropyridin-4-yl)-N-(1-(3-methylimidazo[1,2-a]pyridin-5-yl)ethyl)piperazine-1-carboxamide]: the values for the IC50 in assay [1] and in assay [2] were 104 nM and 7.5 nM, respectively.
On the same counts, the results for `C[C@@H](NC(=O)N1CCN(c2ccncc2F)CC1)c1cccc2c1OC(F)(F)O2` [Example 36, (R)—N-(1-(2,2-Difluorobenzo[d][1,3]dioxol-4-yl)ethyl)-4-(3-fluoropyridin-4-yl)piperazine-1-carboxamide] are 1440 nM and 88.1 nM.
As for `O=C(NCc1cccc2ncoc12)N1CCN(c2ccncc2F)CC1` [Example 39, N-(Benzo[d]oxazol-7-ylmethyl)-4-(3-fluoropyridin-4-yl)piperazine-1-carboxamide], the figures for the IC50 in assay [1] and in assay [2] were 559 nM and 54.6 nM, respectively.
Consider `COc1cccc([C@@H](C)NC(=O)N2CCN(c3ccncc3F)C[C@H]2C)c1` [Example 43, (R)-4-(3-Fluoropyridin-4-yl)-N—((R)-1-(3-methoxyphenyl)ethyl)-2-methylpiperazine-1-carboxamide], for which the figures for the IC50 in assay [1] and in assay [2] were 7.5 nM and 2.9 nM, respectively.
In the case of `COc1cccc([C@@H](C)OC(=O)N2CCN(c3ccncc3F)C[C@H]2C)c1` [Example 46, (R)-1-(3-Methoxyphenyl)ethyl (R)-4-(3-fluoropyridin-4-yl)-2-methylpiperazine-1-carboxylate], the IC50 in assay [1] worked out at 295 nM; in assay [2], 3.9 nM.
As to `C[C@@H]1CN(c2ccncc2F)CCN1C(=O)N[C@H](C)c1ccc(F)cc1Cl` [Example 50, (R)—N—((R)-1-(2-Chloro-4-fluorophenyl)ethyl)-4-(3-fluoropyridin-4-yl)-2-methylpiperazine-1-carboxamide], the figures for the IC50 in assay [1] and in assay [2] were 184 nM and 7.8 nM, respectively.
`COc1cc([C@@H](C)NC(=O)N2CCN(c3ccncc3F)C[C@H]2C)ccc1F` [Example 53, (R)—N—((R)-1-(4-Fluoro-3-methoxyphenyl)ethyl)-4-(3-fluoropyridin-4-yl)-2-methylpiperazine-1-carboxamide]: the IC50 in assay [1] came out at 33.3 nM; in assay [2], 3.5 nM.
Taken in the same sequence, the figures for `C[C@@H]1CN(c2ccncc2F)CCN1C(=O)NCc1ccccc1Cl` [Example 54, (R)—N-(2-Chlorobenzyl)-4-(3-fluoropyridin-4-yl)-2-methylpiperazine-1-carboxamide] were 144 nM and 13 nM.
On the same counts, the results for `COc1ccc(F)c(CNC(=O)N2CCN(c3ccncc3F)C[C@H]2C)c1` [Example 55, (R)—N-(2-Fluoro-5-methoxybenzyl)-4-(3-fluoropyridin-4-yl)-2-methylpiperazine-1-carboxamide] are 602 nM and 23.3 nM.
Taken in the same sequence, the figures for `COc1ncccc1CNC(=O)N1CCN(c2ccncc2F)C[C@H]1C` [Example 56, (R)-4-(3-Fluoropyridin-4-yl)-N-((2-methoxypyridin-3-yl)methyl)-2-methylpiperazine-1-carboxamide] were 3050 nM and 360 nM.
For the compound `C[C@@H]1CN(c2ccncc2F)CCN1C(=O)N[C@H](C)c1cccc2c1CC(C)(C)O2` [Example 57, (R)—N—((R)-1-(2,2-Dimethyl-2,3-dihydrobenzofuran-4-yl)ethyl)-4-(3-fluoropyridin-4-yl)-2-methylpiperazine-1-carboxamide], the IC50 in assay [1] stood at 39.1 nM; in assay [2] it was 5 nM.
Taken in the same sequence, the figures for `C[C@@H]1CN(c2ccncc2F)CCN1C(=O)N[C@H](C)c1cccn2nccc12` [Example 61, (R)-4-(3-Fluoropyridin-4-yl)-2-methyl-N—((R)-1-(pyrazolo[1,5-a]pyridin-4-yl)ethyl)piperazine-1-carboxamide] were 13.8 nM and 2.4 nM.
Taken in the same sequence, the figures for `C[C@H](NC(=O)N1CCN(c2ccncc2F)C[C@H]1C)c1cccn2nccc12` [Example 62, (R)-4-(3-Fluoropyridin-4-yl)-2-methyl-N—((S)-1-(pyrazolo[1,5-a]pyridin-4-yl)ethyl)piperazine-1-carboxamide] were 490 nM and 108 nM.
On the same counts, the results for `Cc1cnc2cccc([C@@H](C)NC(=O)N3CCN(c4ccncc4F)C[C@H]3C)n12` [Example 65, (R)-4-(3-Fluoropyridin-4-yl)-2-methyl-N—((R)-1-(3-methylimidazo[1,2-a]pyridin-5-yl)ethyl)piperazine-1-carboxamide] are 13.2 nM and 3.4 nM.
As to `Cc1cnc2cccc([C@H](C)NC(=O)N3CCN(c4ccncc4F)C[C@H]3C)n12` [Example 66, (R)-4-(3-Fluoropyridin-4-yl)-2-methyl-N—((S)-1-(3-methylimidazo[1,2-a]pyridin-5-yl)ethyl)piperazine-1-carboxamide], the results for the IC50 in assay [1] and in assay [2] were 1270 nM and 297 nM, respectively.
Taken in the same sequence, the figures for `C[C@@H]1CN(c2ccncc2F)CCN1C(=O)N[C@H](C)c1cccc2c1OC(F)(F)O2` [Example 67, (R)—N—((R)-1-(2,2-Difluorobenzo[d][1,3]dioxol-4-yl)ethyl)-4-(3-fluoropyridin-4-yl)-2-methylpiperazine-1-carboxamide] were 243 nM and 10.1 nM.
On the same counts, the results for `C[C@@H]1CN(c2ccncc2F)CCN1C(=O)N[C@H](C)c1cccc2c1OCO2` [Example 68, (R)—N—((R)-1-(Benzo[d][1,3]dioxol-4-yl)ethyl)-4-(3-fluoropyridin-4-yl)-2-methylpiperazine-1-carboxamide] are 17 nM and 4.2 nM.
Consider `C[C@@H]1CN(c2ccncc2F)CCN1C(=O)N[C@H](C)c1cccc2nn(C)cc12` [Example 71, (R)-4-(3-Fluoropyridin-4-yl)-2-methyl-N—((R)-1-(2-methyl-2H-indazol-4-yl)ethyl)piperazine-1-carboxamide], for which the IC50 in assay [1] amounted to 1.6 nM; in assay [2] it was 3.1 nM.
Taken in the same sequence, the figures for `C[C@@H]1CN(c2ccncc2F)CCN1C(=O)OCc1cccc2nccn12` [Example 73, Imidazo[1,2-a]pyridin-5-ylmethyl (R)-4-(3-fluoropyridin-4-yl)-2-methylpiperazine-1-carboxylate] were 1420 nM and 227 nM.
On the same counts, the results for `C[C@@H]1CN(c2ccncc2F)CCN1C(=O)NCc1cccc2c1OC(F)(F)O2` [Example 74, (R)—N-((2,2-Difluorobenzo[d][1,3]dioxol-4-yl)methyl)-4-(3-fluoropyridin-4-yl)-2-methylpiperazine-1-carboxamide Hemiformate] are 978 nM and 56.8 nM.
Taken in the same sequence, the figures for `C[C@@H]1CN(c2ccncc2F)CCN1C(=O)NCc1cccc2c1OCCO2` [Example 77, (R)—N-((2,3-Dihydrobenzo[b][1,4]dioxin-5-yl)methyl)-4-(3-fluoropyridin-4-yl)-2-methylpiperazine-1-carboxamide formate] were 191 nM and 7.6 nM.
As to `C[C@@H]1CN(c2ccncc2F)CCN1C(=O)NCc1cccc2nn(C)cc12` [Example 78, (R)-4-(3-Fluoropyridin-4-yl)-2-methyl-N-((2-methyl-2H-indazol-4-yl)methyl)piperazine-1-carboxamide], the IC50 in assay [1] amounted to 34.3 nM; in assay [2], 4.2 nM.
On the same counts, the results for `[2H]C([2H])([2H])Oc1cccc([C@H](NC(=O)N2CCN(c3ccncc3F)C[C@H]2C)C([2H])([2H])[2H])c1` [Example 81, (R)-4-(3-Fluoropyridin-4-yl)-N—((R)-1-(3-(methoxy-d3)phenyl)ethyl-2,2,2-d3)-2-methylpiperazine-1-carboxamide] are 8.1 nM and 3.7 nM.
